Broadly, the IC50 is the concentration needed to halve the response being measured.

“And” between values parts separate entries of the source, which are not always exact repeats. Identical values can stand only once. Like-named read-outs stand apart in the source and are kept apart here.

9 molecules from patent publication US6911470B1, “Polyoxometalate compounds as antiviral agents” (priority 1988, dated 2005) can be followed below.

Test [1] deals with HSV-2. The test can be described thus: Plaque reduction assay for herpes simplex viruses in Vero cells. It counts as cell-based, herpes simplex virus type 2. The settings on record: Table 2, read-out: EC-50 HSV-2. How it is done:
(§1) Cell culture assays for heroes simplex viruses. Mycoplasma-free Vero cells, obtained from Flow Laboratory (McLean, Va.), were used for the plaque assays. The methodologies for the plaque reduction and cytotoxicity assays have been previously described (Schinazi et al, Antimicrob. Agents Chemother. 22, 499-507, 1982). Median-effect method. Dose-effect relationships were analyzed by the median-effect equation (Chou et al, Adv. Enz. Regul. 22, 27-55, 1984). The slope (m) and median effective and inhibitory concentration (EC50 and IC50) values were obtained by using a computer program developed by Chou and Chou (Chou et al, Elsevier-Biosoft, Elsevier Science Publishers, Cambridge, U.K., 1985).

In test [2] the test system is human PBM cells. The test can be described thus: Cytotoxicity assay on uninfected PHA stimulated human PBMC (trypan blue). The test is classed as cell-based. The essentials: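 Uninfected PHA-stimulated human PBMC at 2×10^5 cells/ml were cultured with or without drug for 6 days. Viability was counted by trypan blue exclusion on a hemacytometer. IC50 was derived by the median-effect method.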

The test system of test [3] is HIV-1 (strain LAV-1). As to the kind of experiment: microbe, parasite or virus in culture. The test is classed as cell-based. As to the method:
Cells. Human peripheral blood mononuclear cells (PBMC) from healthy HIV-1 seronegative and hepatitis B virus seronegative donors were isolated by Ficoll-Hypaque discontinuous gradient centrifugation at 1,000×g for 30 minutes, washed twice in phosphate-buffered saline (pH 7.2; PBS), and pelleted at 300×g for 10 minutes. Before infection, the cells were stimulated by phytohemagglutinin (PHA) at a concentration of 6 μg/ml for three days in RPMI 1640 medium supplemented with 15% heat-inactivated fetal calf serum, 1.5 mM L-glutamine, penicillin (100 U/ml), streptomycin (100 μg/ml), and 4mM sodium bicarbonate buffer.
Viruses. HIV-1 (strain LAV-1) was obtained from Dr. P. Feorino (Centers for Disease Control, Atlanta, Ga.). The virus was propagated in human PBMC using RPMI 1640 medium, as described previously (McDougal et al, J. Immun. Meth. 76, 171-183, 1985) without PHA and supplemented with 7% v/v interleukin-2 (Advanced Biotechnologies, Silver Spring, Md.), 7 μg/ml DEAE-dextran (Pharmacia, Uppsala, Sweden), and 370 U/ml anti-human leucocyte (alpha) interferon (ICN, Lisle, Ill.). Virus obtained from cell-free culture supernatant was titrated and stored in aliquots at −80° C. until use.
Inhibition of virus replication in human PBMC. Uninfected PHA-stimulated human PBMC were uniformly distributed among 25 cm^2 flasks to give a 5 ml suspension containing about 2×10^6 cells/ml. Suitable dilutions of virus were added to infect the cultures. The mean reverse transcriptase (RT) activity of the inocula was 50,000 decompositions per min/ml corresponding to about 100 TCID50, as determined by Groopman et al. (Groopman et al, AIDS Res. Human Retro. 3, 71-85, 1987. The drugs at twice their final concentrations in 5 ml of RPMI 1640 medium, supplemented as described above, were added to the cultures. Uninfected and untreated PBMC at equivalent cell densities were grown in parallel as controls. The cultures were maintained in a humidified 5% CO2-95% air incubator at 37° C. for six days after infection, at which point all cultures were sampled for supernatant reverse transcriptase (RT) activity.
RT activity assay. Six ml supernatant from each culture was clarified from cells at 300×g for 10 minutes. Virus particles were pelleted from 5 ml samples at 40,000 rpm for 30 minutes using a Beckman 70.1 Ti rotor and suspended in 200 μl of virus disrupting buffer (50 mM Tris-Cl, pH 7.8, 800 mM NaCl, 20% glycerol, 0.5 mM phenylmethyl sulfonyl fluoride, and 0.5% Triton X-100).
The RT assay was performed in 96-well microtiter plates, as described by Spira et al. (Spira et al, J. Clin. Microbiol. 22, 97-99, 1987). The reaction mixture, which contained 50 mM Tris-Cl pH 7.8, 9 mM MgCl2, 5 mM dithiothreitol (DTT), 4.7 μg/ml (rA)n. (dT)12-18, 140 μM dATP, and 0.22 μM [^3H]TTP, specific activity 78.0 Ci/mmol, equivalent to 17,300 cpm/pmol; NEN Research Products, Boston, Mass., was added to each well. The sample (20 μl) was added to the reaction mixture which was then incubated at 37° C. for 2 hours. The reaction was terminated by the addition of 100 μl 10% trichloroacetic acid (TCA) containing 0.45 mM sodium pyrophosphate. The acid-insoluble nucleic acids which precipitated were collected on glass filters using a Skatron semi-automatic harvester. The filters were washed with 5% TCA and 70% ethanol, dried, and placed in scintillation vials. Four ml of scintillation fluid (Econofluor, NEN Research Products, Boston, Mass.) were added and the amount of radioactivity in each sample was determined using a Packard Tri-Carb liquid scintillation analyzer (model 2,000CA). The results were expressed in dpm/ml of original clarified supernatant.
Median-effect method. Dose-effect relationships were analyzed by the median-effect equation (Chou et al, Adv. Enz. Regul. 22, 27-55, 1984).

The subject of test [4] is HSV-1. As to the kind of experiment: Plaque reduction assay for herpes simplex viruses in Vero cells. The test is classed as cell-based, herpes simplex virus type 1. The settings on record: Table 2, read-out: EC-50 HSV-1. How it is done: as §1
In general terms: Plaque reduction counts the foci of infection that form in a cell layer.

[5] abbreviates: Table 2, >100 μM = Nontoxic, read-out: IC50 Toxicity PBM Cells.
[6] abbreviates: Table 2, several values per cell, some in brackets, read-out: EC-50 HIV-1 (LAV-1).
Where [7] appears, read: Table 1, read-out: IC50 Toxicity in Human PBM Cells.
Setting [8] is: Table 1, read-out: EC50 Anti-HIV-1 Activity in Human PBM Cells.

For `Cc1cn([C@H]2C[C@H](N=[N+]=[N-])[C@@H](CO)O2)c(=O)[nH]c1=O` [Formula 22, 3′-azido-3′-deoxythymidine, reference compound], the EC50 in test [1] (Human alphaherpesvirus 2, Vero) is above 100000 nM; in test [3] (Human immunodeficiency virus 1, PBMC, Table 1, read-out: EC50 Anti-HIV-1 Activity in Human PBM Cells), 4 nM; in test [3] (Human immunodeficiency virus 1, PBMC, Table 2, several values per cell, some in brackets, read-out: EC-50 HIV-1 (LAV-1)) it was 3.08 nM; in test [4] (Human alphaherpesvirus 1, Vero), above 100000 nM. In addition, the IC50 was above 100000 nM in test [2] (Homo sapiens, PBMC, Table 1, read-out: IC50 Toxicity in Human PBM Cells) and above 100000 nM in test [2] (Homo sapiens, PBMC, Table 2, >100 μM = Nontoxic, read-out: IC50 Toxicity PBM Cells).

For “(ArgH^+)m(H^+)4-mST, where m=1-4 [(ARGH^+)nH^+(4−n)ST]”, the EC50 in test [1] was below 1000 nM; in test [3] (setting [6]) it was 1030 nM and 770 nM; in test [4], 180 nM. For the same molecule, in test [2] (setting [5]), the IC50 was above 100000 nM.

For the molecule (Me4N)4W10O32 [Formula 19], the EC50 in test [1] is 8780 nM; in test [3] (setting [8]), 3100 nM; in test [3] (setting [6]) it was 3050 nM and 3300 nM; in test [4], 5980 nM. For the same molecule, the half-maximal inhibitory concentration (IC50) in test [2] (setting [7]) is above 100000 nM.

Take (NH4)4W10O32 [Formula 18]: the EC50 in test [1] is 9700 nM; in test [3] (setting [8]), 1800 nM; in test [4], above 10000 nM. The IC50 was 115000 nM in test [2] (setting [7]) and above 100000 nM in test [2] (setting [5]).

In the case of (NH4)6P2W18O62 [Formula 14], the EC50 in test [1] amounted to 240 nM; in test [3] (setting [8]) it was 910 nM; in test [3] (setting [6]), 910 nM; in test [4], 330 nM. The “Toxicity PBM Cells, percent at given concentration” value (“Toxicity PBM Cells, percent” below) in test [2] (100 μM) was 76%,. Moreover, the IC50 in test [2] (setting [7]) stood at 1800 nM.

Turning to H3PW12O40 [Formula 2], the EC50 in test [1] was 18700 nM; in test [3] (setting [8]), 14000 nM; in test [3] (setting [6]), 14000 nM; in test [4] it was 12700 nM. The IC50 in test [2] (setting [7]) was above 100000 nM.

For H4SiW12O40 [Formula 3], the EC50 is 1500 nM in test [1]; 120 nM in test [3] (setting [8]); 120 nM and 210 nM in test [3] (Table 2, several values per cell, some in brackets, listed as α and β H4ST, read-out: EC-50 HIV-1 (LAV-1)); 1600 nM in test [4]. Also, the IC50 in test [2] (setting [7]) is above 200000 nM. In test [3] (from Table 1 EC50 and IC50), the “therapeutic index in human PBM cells” value is “highest”.

Take H5BW12O40 [Formula 4]: in test [2] (200 μM), the “Toxicity PBM Cells, percent” value is 76%,. The IC50 in test [2] (setting [7]) was determined as 126000 nM. Further, the EC50 was 460 nM in test [3] (setting [8]) and below 1000 nM in test [4].

In the case of H6P2W18O62 [Formula 13], the EC50 in test [1] came to 180 nM; in test [3] (setting [8]), 520 nM; in test [3] (setting [6]), 520 nM; in test [4], 160 nM. The “Toxicity PBM Cells, percent” value in test [2] (100 μM) is listed as 90%,. In addition, in test [2] (setting [7]), the IC50 is 6200 nM.
